We go through twelve compounds from patent US20260226048A1, “MULTI-CYCLIC IRAK AND FLT3 INHIBITING COMPOUNDS AND USES THEREOF” (CHILDREN'S HOSPITAL MEDICAL CENTER, priority 2023, published 2026).

As a reminder, the IC50 is the concentration that inhibits the measured activity by half.

Assay [1] has as its system NF-κB-inducible SEAP reporter in THP-1-Blue NF-κB cells. The experiment in a line: NF-kB SEAP reporter assay in THP-1-Blue NF-κB cells. It is filed as cell-based. The following applies: 24 hours. As for the experimental part:
THP-1-Blue NF-κB cells (InvivoGen) carrying a stable integrated NF-κB-inducible secreted embryonic alkaline phosphatase (SEAP) reporter construct were plated at a concentration of 1×10^5 cells per well. The cells were stimulated with Pam3CSK4 (1 ng/mL) or hIL1B (1 ng/mL). After 10-20 minutes, the cells were then treated with vehicle (DMSO) or serial dilutions of the test compounds (10 doses tested for each test compound, with a 1:10 dilution series starting at 1 μM or 3 μM) with a final volume of 200 μL for 24 hours at 37° C. After 24 hours, the cells were centrifuged and 20 μL supernatant was incubated with 180 μL QUANTI-Blue reagent at 37° C. for 30-60 minutes. The levels of NF-κB-induced was measured in a microplate reader at 620 nm.

The target of a further assay is T1, FLT3 (Homo sapiens, UniProt P36888).
T1 sequence (P36888 27-993): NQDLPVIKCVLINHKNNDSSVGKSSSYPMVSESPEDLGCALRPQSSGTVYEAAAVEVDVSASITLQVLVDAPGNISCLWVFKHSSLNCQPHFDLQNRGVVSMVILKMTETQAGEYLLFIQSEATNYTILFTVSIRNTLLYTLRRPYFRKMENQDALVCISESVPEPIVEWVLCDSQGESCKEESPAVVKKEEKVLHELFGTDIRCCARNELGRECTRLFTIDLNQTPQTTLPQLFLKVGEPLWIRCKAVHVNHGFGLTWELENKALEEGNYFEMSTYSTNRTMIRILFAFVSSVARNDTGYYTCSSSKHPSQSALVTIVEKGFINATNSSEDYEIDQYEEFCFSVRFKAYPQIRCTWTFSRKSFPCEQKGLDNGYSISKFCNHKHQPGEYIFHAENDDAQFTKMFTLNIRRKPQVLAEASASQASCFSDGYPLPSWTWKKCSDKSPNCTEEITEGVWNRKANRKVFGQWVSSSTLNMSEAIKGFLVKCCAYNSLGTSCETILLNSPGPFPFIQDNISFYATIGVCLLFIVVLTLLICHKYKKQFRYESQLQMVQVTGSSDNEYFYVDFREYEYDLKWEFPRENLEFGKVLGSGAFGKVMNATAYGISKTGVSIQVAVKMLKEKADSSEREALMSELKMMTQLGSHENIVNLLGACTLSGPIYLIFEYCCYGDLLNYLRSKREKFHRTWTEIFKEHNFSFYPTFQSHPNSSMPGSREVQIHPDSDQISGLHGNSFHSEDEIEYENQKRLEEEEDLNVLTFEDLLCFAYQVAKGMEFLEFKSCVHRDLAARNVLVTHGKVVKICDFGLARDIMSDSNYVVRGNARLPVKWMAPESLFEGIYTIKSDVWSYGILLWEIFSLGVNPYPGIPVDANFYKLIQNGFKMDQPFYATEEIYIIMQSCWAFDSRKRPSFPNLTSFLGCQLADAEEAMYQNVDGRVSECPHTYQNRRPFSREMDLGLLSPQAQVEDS
Put plainly: RBC HotSpot Kinase Assay, FLT3. The class given is biochemical. Conditions: isolated kinase enzyme, 33P-ATP, P81 filter-binding. More on the design: purchased Reaction Biology (RBC HotSpot). The method in brief:
(§1)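 Reactions ran in 20 mM Hepes (pH 7.5) containing 10 mM MgCl2, 1 mM EGTA, 0.1 mM Na3VO4, 2 mM DTT, 0.02 mg/ml BSA, 0.01% Brij35 and 1% DMSO, plus required cofactors. Functional activity readout on the expressible enzyme form, sometimes C-terminally truncated or lacking receptor regulatory regions.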

The target of another assay is T2, IRAK1 (Homo sapiens, UniProt P51617).
T2 construct: purchased Reaction Biology (RBC HotSpot)
The experiment in a line: RBC HotSpot Kinase Assay, IRAK1. It is filed as biochemical. Conditions: isolated kinase enzyme, 33P-ATP, P81 filter-binding. The method in brief: as §1

The target of the next assay is T3, IRAK4 (Homo sapiens, UniProt Q9NWZ3).
T3 sequence (Q9NWZ3 1-460): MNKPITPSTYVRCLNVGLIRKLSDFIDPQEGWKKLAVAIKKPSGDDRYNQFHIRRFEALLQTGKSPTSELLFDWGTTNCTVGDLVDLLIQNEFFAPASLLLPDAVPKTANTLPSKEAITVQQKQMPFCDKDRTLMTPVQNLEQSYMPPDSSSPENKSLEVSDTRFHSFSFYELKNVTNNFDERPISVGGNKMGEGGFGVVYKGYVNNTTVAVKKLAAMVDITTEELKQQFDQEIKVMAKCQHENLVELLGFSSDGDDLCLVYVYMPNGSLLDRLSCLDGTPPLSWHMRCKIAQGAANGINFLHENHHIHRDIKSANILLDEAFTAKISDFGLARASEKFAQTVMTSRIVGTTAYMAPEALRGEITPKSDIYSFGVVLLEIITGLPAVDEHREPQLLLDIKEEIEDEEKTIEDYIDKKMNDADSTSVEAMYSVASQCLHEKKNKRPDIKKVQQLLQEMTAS
The experiment in a line: RBC HotSpot Kinase Assay, IRAK4. It is filed as biochemical. More on the design: purchased Reaction Biology (RBC HotSpot). The following applies: isolated kinase enzyme, 33P-ATP, P81 filter-binding. The method in brief:
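Radiometric filter-binding activity assay with isolated recombinant kinase (construct may be truncated or catalytic domain only) in 20 mM Hepes pH 7.5, 10 mM MgCl2, 1 mM EGTA, 2 mM DTT, 1% DMSO. Compound preincubated 20 min with kinase/substrate; reaction started with 33P-ATP, run 2 h at room temperature.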

A further assay has as its system MOLM14 D835Y cells. Put plainly: MOLM14 D835Y cell viability assay (Cell Titer Glo). It is filed as cell-based. The following applies: Homo sapiens, MOLM-14, 48 h, cell viability, Cell Titer Glo, 48 hours; read-out: MOLM14 D835Y IC50. The method in brief: (§2)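 Luminescent ATP read-out (CellTiter-Glo, 15 min room temperature) taken 48 h after compound addition. Cells were MOLM14 carrying FLT3 D835Y or F691L mutations, plated at 1000 cells per well.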
(In general: ATP-based viability assays read luminescence as a measure of living cells.)

A further assay relates to MOLM14 F691L cells. Put plainly: MOLM14 F691L cell viability assay (Cell Titer Glo). The class given is cell-based. The following applies: Homo sapiens, MOLM-14; cell viability, Cell Titer Glo, 48 hours; read-out: MOLM14 F691L IC50. The method in brief:
as §2

The mark [2] stands for this setting: THP-1-Blue NF-κB cells stimulated with Pam3CSK4 (1 ng/mL), read-out: NF-κB Pam3SCK4 IC50.
[3] abbreviates: THP-1-Blue NF-κB cells stimulated with hIL1B (1 ng/mL), read-out: NF-κB IL1B IC50.

The structures appear in SMILES notation. Where two headings read alike, the source gives them in different places.

T2 sequence (P51617 whole entry): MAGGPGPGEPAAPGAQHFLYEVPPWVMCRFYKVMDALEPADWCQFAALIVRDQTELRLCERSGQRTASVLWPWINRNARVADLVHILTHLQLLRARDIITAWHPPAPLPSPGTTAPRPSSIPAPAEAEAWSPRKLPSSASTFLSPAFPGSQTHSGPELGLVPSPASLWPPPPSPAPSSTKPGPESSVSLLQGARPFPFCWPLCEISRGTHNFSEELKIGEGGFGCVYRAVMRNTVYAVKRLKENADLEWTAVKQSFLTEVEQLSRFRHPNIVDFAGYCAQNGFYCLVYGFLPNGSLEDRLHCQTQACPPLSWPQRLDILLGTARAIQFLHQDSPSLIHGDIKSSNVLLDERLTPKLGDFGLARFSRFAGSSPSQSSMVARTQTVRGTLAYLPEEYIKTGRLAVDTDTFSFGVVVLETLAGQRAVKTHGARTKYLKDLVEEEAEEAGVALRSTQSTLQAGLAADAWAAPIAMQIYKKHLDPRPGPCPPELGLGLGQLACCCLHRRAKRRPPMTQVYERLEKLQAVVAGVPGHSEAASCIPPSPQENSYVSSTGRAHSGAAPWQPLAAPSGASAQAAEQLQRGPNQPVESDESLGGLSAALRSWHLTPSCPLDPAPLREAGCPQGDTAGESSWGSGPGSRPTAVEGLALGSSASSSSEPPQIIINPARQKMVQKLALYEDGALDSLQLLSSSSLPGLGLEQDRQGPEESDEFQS

On to `C[C@@](O)(c1ccc2ncc(-c3ccnc(N[C@H]4CNCC[C@@H]4F)n3)n2c1)C(F)(F)F` (single isomer, unassigned) [Compound 27a], for which the IC50 in assay [1] (setting [2]) is 55 nM; in assay [1] (setting [3]), 52 nM; on FLT3, less than 0.5 nM; at IRAK1, 4 nM; at IRAK4, 0.7 nM; in the assay with MOLM14 D835Y cells it was 18 nM.

For `CC(O)(c1ccc2ncc(-c3nc(N[C@@H]4CCCNC4)ncc3F)n2c1)C(F)(F)F` (single isomer, unassigned) [Compound 37a], the half-inhibitory concentration (IC50) is 70 nM in assay [1] (setting [2]); 58 nM in assay [1] (setting [3]); less than 0.5 nM on FLT3; 2 nM on IRAK1; 2 nM on IRAK4; 32 nM in the assay on MOLM14 D835Y cells.

For `COc1cc2ncc(-c3nc(N[C@@H]4CCCNC4)ncc3F)n2nc1C1CC1` [Compound 3a, (R)-4-(6-cyclopropyl-7-methoxyimidazo[1,2-b]pyridazin-3-yl)-5-fluoro-N-(piperidin-3-yl)pyrimidin-2-amine], the IC50 is 40 nM in assay [1] (setting [2]); 58 nM in assay [1] (setting [3]); less than 0.5 nM at FLT3; 2 nM on IRAK1; less than 0.5 nM on IRAK4; 1 nM with MOLM14 D835Y cells. In addition, in the assay with MOLM14 F691L cells, the IC50 stood at 5 nM.

For the compound `F[C@H]1CCNC[C@@H]1Nc1cncc(-c2cnc3cc(OC4CC4)c(C4CC4)nn23)n1` [Compound 13a, 6-(7-cyclopropoxy-6-cyclopropylimidazo[1,2-b]pyridazin-3-yl)-N-((3S,4S)-4-fluoropiperidin-3-yl)pyrazin-2-amine], the half-maximal inhibitory concentration (IC50) in assay [1] (setting [2]) was 512 nM; in assay [1] (setting [3]), 334 nM; at FLT3, less than 0.5 nM; at IRAK1 it was 55 nM; at IRAK4, 5 nM; in the assay on MOLM14 D835Y cells it was 115 nM.

Consider `COc1cc2ncc(-c3ccnc(N[C@H]4CNCC[C@@H]4F)n3)n2nc1C1CC(F)(F)C1` [Compound 19a, 4-(6-(3,3-difluorocyclobutyl)-7-methoxyimidazo[1,2-b]pyridazin-3-yl)-N-((3S,4S)-4-fluoropiperidin-3-yl)pyrimidin-2-amine], for which the concentration for half-maximal inhibition (IC50) in assay [1] (setting [2]) was 701 nM; in assay [1] (setting [3]), 567 nM; at FLT3, less than 0.5 nM; at IRAK1 it was 70 nM; on IRAK4 it was 13 nM; in the assay on MOLM14 D835Y cells it was 51 nM.

In the case of `COc1cc2ncc(-c3nc(N[C@@H]4CCCNC4)ncc3F)n2nc1C1CC(F)(F)C1` [Compound 51a, (R)-4-(6-(3,3-difluorocyclobutyl)-7-methoxyimidazo[1,2-b]pyridazin-3-yl)-5-fluoro-N-(piperidin-3-yl)pyrimidin-2-amine], the half-inhibitory concentration (IC50) is 136 nM in assay [1] (setting [2]); 135 nM in assay [1] (setting [3]); less than 0.5 nM on FLT3; 3 nM at IRAK1; 3 nM on IRAK4; 9 nM with MOLM14 D835Y cells.

For `COc1cc2ncc(-c3nc(N[C@@H]4CCCNC4)ncc3F)n2nc1C12CC(C1)C2` [Compound 68a, (R)-4-(6-(bicyclo[1.1.1]pentan-1-yl)-7-methoxyimidazo[1,2-b]pyridazin-3-yl)-5-fluoro-N-(piperidin-3-yl)pyrimidin-2-amine], the half-maximal inhibitory concentration (IC50) in assay [1] (setting [2]) was 144 nM; in assay [1] (setting [3]) it was 108 nM; at FLT3 it was less than 0.5 nM; at IRAK1, 0.9 nM; on IRAK4, 0.8 nM; in the assay with MOLM14 D835Y cells, 3 nM. Besides, the half-inhibitory concentration (IC50) in the assay on MOLM14 F691L cells turned out to be 20 nM.

`Fc1cnc(N[C@H]2CNCC[C@@H]2F)nc1-c1cnc2cnc(C3COC3)cn12` [Compound 117a, 5-fluoro-N-((3S,4S)-4-fluoropiperidin-3-yl)-4-(6-(oxetan-3-yl)imidazo[1,2-a]pyrazin-3-yl)pyrimidin-2-amine]: the IC50 at FLT3 amounted to 3 nM; at IRAK1 it was 397 nM; at IRAK4 it was 45 nM; in the assay with MOLM14 D835Y cells, 159 nM; in the assay on MOLM14 F691L cells, 1590 nM.

Regarding `Fc1cnc(N[C@@H]2CCCNC2)nc1-c1cnc2cnc(C3COC3)cn12` [Compound 118a, (R)-5-fluoro-4-(6-(oxetan-3-yl)imidazo[1,2-a]pyrazin-3-yl)-N-(piperidin-3-yl)pyrimidin-2-amine], the concentration for half-maximal inhibition (IC50) is 7 nM at FLT3; 732 nM at IRAK1; 155 nM on IRAK4; 179 nM with MOLM14 D835Y cells; 3180 nM with MOLM14 F691L cells.

Regarding `COc1cc2ncc(-c3nc(N[C@H]4CNC[C@@H]4F)ncc3F)n2nc1N1CCS(=O)(=O)CC1` [Compound 123a, 4-(3-(5-fluoro-2-(((3S,4S)-4-fluoropyrrolidin-3-yl)amino)pyrimidin-4-yl)-7-methoxyimidazo[1,2-b]pyridazin-6-yl)thiomorpholine 1,1-dioxide], the IC50 at FLT3 was less than 0.5 nM; on IRAK1, 43 nM; on IRAK4, 5 nM; in the assay with MOLM14 D835Y cells, 63 nM; in the assay on MOLM14 F691L cells, 1000 nM.

As to `COc1cc2ncc(-c3nc(N[C@@H]4CCCNC4)ncc3F)n2nc1N1CCS(=O)(=O)CC1` [Compound 124a, (R)-4-(3-(5-fluoro-2-(piperidin-3-ylamino)pyrimidin-4-yl)-7-methoxyimidazo[1,2-b]pyridazin-6-yl)thiomorpholine 1,1-dioxide], the IC50 was determined as 2 nM at FLT3; 123 nM at IRAK1; 138 nM at IRAK4; 90 nM in the assay with MOLM14 D835Y cells; 1130 nM in the assay with MOLM14 F691L cells.

On to `COc1cc2ncc(-c3ccnc(N[C@H]4CNCC[C@@H]4F)n3)n2nc1[C@H]1C[C@@H](O)C1` [Compound 127a, (Cis)-3-(3-(2-(((3S,4S)-4-fluoropiperidin-3-yl)amino)pyrimidin-4-yl)-7-methoxyimidazo[1,2-b]pyridazin-6-yl)cyclobutan-1-ol], for which the IC50 is less than 0.5 nM at FLT3; 20 nM on IRAK1; less than 0.5 nM on IRAK4; 8 nM in the assay with MOLM14 D835Y cells; 113 nM in the assay on MOLM14 F691L cells.
